Patent US6727237B2, “Inhibitors of bacterial NAD synthetase” (priority 1998, dated 2004)
“And” between values parts separate entries of the source, which are not always exact repeats. Identical values can stand only once. Like-named read-outs stand apart in the source and are kept apart here.

Legend:
[1] = target: T1, bacterial NAD synthetase enzyme (Bacillus subtilis, UniProt P08164); assay: biochemical; format: biochemical
T1 sequence (P08164 2-272 limits assumed): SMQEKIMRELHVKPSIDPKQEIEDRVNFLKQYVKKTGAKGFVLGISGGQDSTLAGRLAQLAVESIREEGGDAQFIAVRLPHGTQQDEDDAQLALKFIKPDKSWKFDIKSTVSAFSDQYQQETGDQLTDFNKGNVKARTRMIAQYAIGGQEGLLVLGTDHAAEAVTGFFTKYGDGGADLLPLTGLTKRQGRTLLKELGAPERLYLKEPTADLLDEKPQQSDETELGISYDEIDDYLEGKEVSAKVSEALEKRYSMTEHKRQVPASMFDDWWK

[2] = system: B. subtilis; assay: Dose response of bacterial growth inhibition, MIC85; conditions: Bacillus subtilis, read-out: MIC85
[3] = target: T1, bacterial NAD synthetase enzyme; conditions: 2 mL Assay (cuvette); substrate; double reciprocal plots
[4] = system: K562 human myeloid cell line; assay: In vitro toxicity in human cells, propidium iodide flow cytometry, minimum toxic concentration
Experimental: The final concentration of DMSO was less than 5%, and a DMSO control was included. The mixtures were incubated at doubling dilutions (approximately 1000 μM-10 μM range) of inhibitor for 15 hours at 37° C. At this time propidium iodide was added (1 μg/mL) and the mixture incubated at 30 min. at 4° C. The cells were washed once with medium, centrifuged, and resuspended in 2% bovine serum albumin/phosphate-buffered saline. The cell suspension was then run through a FAC Saliber flow cytometer and approximately 5000 cells were counted. The proportion of dead (stained) cells was determined, and the percent of live cells was expressed as % controls.

[5] = system: Staphylococcus epidermitis; assay: Dose response of bacterial growth inhibition, MIC85; conditions: for MIC: Staphylococcus, read-out: MIC85; for MIC85: minimum inhibitory concentration to achieve 85% inhibition, S. epidermitis
[6] = system: Staphylococcus epidermitis; assay: Bacterial growth inhibition screen in LB media (absorbance 595 nm), percent inhibition; conditions: for inhibition of growth at 100 µM / inhibition of growth at 10 µM: Staphylococcus, read-out: % Inhibition, S. epidermitis; for % Inhibition: S. epidermitis
[7] = K562 human myeloid cells, 15 hours at 37° C., propidium iodide
[8] = compound at 0.2 mM (Table 312A)
[9] = lead compounds (Table 318A), read-out: IC 50

COC(=O)c1cc2cc(OCc3ccccc3)ccc2n1CCCCCCCCCOC(=O)Cc1ccc([N+](C)(C)C)cc1 [Compound 990]
IC50 [1]: 20 µM
inhibition at 200 µM [1]: 92.2%
MIC [2]: 10 µM

N [NH3, ammonia]
Km [3]: 2.88 mM
Vmax [3]: 137 nM/s

CC(=O)c1ccc2[nH]c(CCCCCCCCOC(=O)Cc3ccc[n+](C)c3)cc2c1 [Compound 939]
IC50 [1]: 25 µM
inhibition at 250 µM [1]: 97.8%
Minimum Toxic Dose ([4]; human, 15 h): 500 µM

COC(=O)c1cc2cc(OCc3ccccc3)ccc2n1CCCCCCCCC[n+]1ccccc1 [Compound 230]
inhibition at 100 µM [1]: 93.1%
MIC [5]: 3 µM
inhibition of growth at 100 µM ([6]; concentration screened 100 uM): 95.5%
MIC [2]: 10 µM

COC(=O)c1cc2ccccc2n1CCCCCCOC(=O)c1cccnc1 [Compound 947]
Minimum Toxic Dose [4, 7]: 200 µM

Fc1cc(F)c2[nH]c(CCCC[n+]3cccc4ccccc43)cc2c1 [Compound 409]
% Inhibition [1, 8]: 19.02%
Minimum Toxic Dose [4, 7]: 200 µM
% Inhibition ([6]; concentration screened 10 uM): 2.44%

COC(=O)c1cc2ccccc2n1CCCCCCCCOC(=O)c1cccnc1 [Compound 949]
Minimum Toxic Dose [4, 7]: 200 µM

C[n+]1cccc(C(=O)OCCCCCCCCn2ccc3cc(OCc4ccccc4)ccc32)c1 [Compound 769]
inhibition at 100 µM [1]: 98.3%
IC50 [1, 9]: 20 µM
MIC [5]: 10 µM
inhibition of growth at 100 µM ([6]; concentration screened 100 uM): 95.9%
MIC [2]: 3 µM

C[N+](C)(C)c1ccc(CC(=O)OCCCCCCCCn2ccc3cc(OCc4ccccc4)ccc32)cc1 [Compound 749]
IC50 [1]: 25 µM
inhibition at 100 µM [1]: 98.2%
MIC [5]: 10 µM
inhibition of growth at 100 µM ([6]; concentration screened 100 uM): 98.7%
MIC [2]: 3 µM

COC(=O)c1cc2ccccc2n1CCCCCCCCCOC(=O)Cc1ccc([N+](C)(C)C)cc1 [Compound 986]
inhibition at 50 µM [1]: 30.8%
IC50 [1, 9]: 10 µM
MIC [2]: 10 µM

COC(=O)c1cc2cc(OCc3ccccc3)ccc2n1CCCCCCC[n+]1ccccc1 [Compound 229]
IC50 [1]: 25 µM
inhibition at 100 µM [1]: 99.3%
MIC [5]: 3 µM
inhibition of growth at 100 µM ([6]; concentration screened 100 uM): 98%

COC(=O)c1cc2ccccc2n1CCCCCCCOC(=O)Cc1ccc([N+](C)(C)C)cc1 [Compound 984]
IC50 [1]: 20 µM
inhibition at 50 µM [1]: 87.5%
MIC [2]: 30 µM

COC(=O)c1cc2cc(OCc3ccccc3)ccc2n1CCCCCCCCOC(=O)c1cccnc1 [Compound 953]
Minimum Toxic Dose [4, 7]: 100 µM

COC(=O)c1cc2cc(OCc3ccccc3)ccc2n1CCCCCCOC(=O)c1cccnc1 [Compound 951]
Minimum Toxic Dose [4, 7]: 500 µM

C[N+](C)(C)c1ccc(CC(=O)OCCCCn2ccc3cc(OCc4ccccc4)ccc32)cc1 [Compound 745]
IC50 [1]: 85 µM
inhibition at 200 µM [1]: 85.4%
MIC [5]: 30 µM
inhibition of growth at 10 µM ([6]; concentration screened 10 uM): 95.1%

CCCCc1ccc2[nH]c(CCCCCC[n+]3ccccc3)cc2c1 [Compound 315]
IC50 [1]: 100 µM
inhibition at 100 µM [1]: 77.2%
MIC [5]: 30 µM
inhibition of growth at 100 µM ([6]; concentration screened 100 uM): 100%

COC(=O)c1cc2ccccc2n1CCCCCCCOC(=O)c1cccnc1 [Compound 948]
% Inhibition ([1]; compound at 0.05 mM): 2.52%
Minimum Toxic Dose [4, 7]: 200 µM

COC(=O)c1ccc2ccn(CCCCCCCCC[n+]3ccccc3)c2c1 [Compound 214]
IC50 [1]: 30 µM
inhibition at 100 µM [1]: 82.8%
MIC [5]: 10 µM
inhibition of growth at 100 µM ([6]; concentration screened 100 uM): 98.1%

c1ccc(C(c2ccccc2)(c2ccccc2)c2ccc3[nH]c(CCC[n+]4ccc5ccccc5c4)cc3c2)cc1 [Compound 552]
% Inhibition ([1]; compound at 0.1 mM (Table 314)): 15.24%
MIC85 [5]: 30 µM
% Inhibition ([6]; concentration screened 10 uM): 50.00%

C[n+]1cc(C(=O)OCCCCCCn2ccc3cc([N+](=O)[O-])ccc32)cc2ccccc21 [Compound 832]
IC50 [1]: 90 µM
inhibition at 100 µM [1]: 78.6%
MIC [5]: 30 µM
inhibition of growth at 10 µM ([6]; concentration screened 10 uM): 94.7%

Cc1ccc2[nH]c(CCCC[n+]3ccccc3)cc2c1 [Compound 295]
% Inhibition ([1]; compound at 0.1 mM (Table 314)): 25.05%
MIC85 [5]: 10 µM
% Inhibition ([6]; concentration screened 10 uM): 94.48%

COC(=O)c1cc2ccccc2n1CCCCCCCCOC(=O)Cc1ccc([N+](C)(C)C)cc1 [Compound 985]
IC50 [1]: 15 µM
inhibition at 50 µM [1]: 92.1%
MIC [2]: 10 µM

Cc1ccc2[nH]c(CCCCC[n+]3ccc4ccccc4c3)cc2c1 [Compound 512]
% Inhibition [1, 8]: 17.50%
MIC85 [5]: 30 µM
% Inhibition ([6]; concentration screened 100 uM): 99.71%

COC(=O)c1cc2ccccc2n1CCCCCCCCC[n+]1ccccc1 [Compound 182]
IC50 [1]: 60 µM
inhibition at 100 µM [1]: 95.4%
MIC [5]: 10 µM
inhibition of growth at 100 µM ([6]; concentration screened 100 uM): 97.7%

O=C(O)C=Cc1cn(CCCCCCCCC[n+]2cccc(C(=O)[O-])c2)c2ccccc12 [Compound 274]
Minimum Toxic Dose [4, 7]: 300 µM

COC(=O)c1ccc[n+](CCCCCCCCCn2ccc3cc([N+](=O)[O-])ccc32)c1 [Compound 14]
% Inhibition [1, 8]: 78.85%
MIC85 [5]: 10 µM
% Inhibition ([6]; concentration screened 10 uM): 98.58% and 96.19%

COC(=O)c1cc2cc(OCc3ccccc3)ccc2n1CCCCCCCCOC(=O)c1ccc[n+](C)c1 [Compound 977]
IC50 [1]: 10 µM
inhibition at 100 µM [1]: 87.6%
MIC [2]: 10 µM

FC(F)(F)c1ccc2cc(CCCCCC[n+]3ccccc3)[nH]c2c1 [Compound 291]
% Inhibition [1, 8]: 71.94%
MIC85 [5]: 30 µM
% Inhibition ([6]; concentration screened 100 uM): 100.00%

COC(=O)c1ccc[n+](CCCCCCCn2ccc3cc([N+](=O)[O-])ccc32)c1 [Compound 12]
% Inhibition ([1]; compound at 0.1 mM (Table 314)): 62.22%
MIC85 [5]: 30 µM
% Inhibition ([6]; concentration screened 10 uM): 99.22% and 95.73%

COC(=O)C=Cc1cn(CCCCCCCCC[n+]2cccc(C(=O)OC)c2)c2ccccc12 [Compound 270]
IC50 [1]: 60 µM
MIC [5]: 10 µM
Minimum Toxic Dose ([4]; human, 15 h): 200 µM
inhibition of growth at 10 µM ([6]; concentration screened 10 uM): 97.5%

C[n+]1cccc(C(=O)OCCCCCn2ccc3cc(OCc4ccccc4)ccc32)c1 [Compound 766]
IC50 [1]: 65 µM
inhibition at 100 µM [1]: 91.2%
MIC [5]: 30 µM
inhibition of growth at 10 µM ([6]; concentration screened 10 uM): 90.5%

c1ccc(C(c2ccccc2)(c2ccccc2)c2ccc3[nH]c(CCCC[n+]4ccc5ccccc5c4)cc3c2)cc1 [Compound 553]
% Inhibition ([1]; compound at 0.1 mM (Table 314)): 49.49%
MIC85 [5]: 10 µM
% Inhibition ([6]; concentration screened 10 uM): 94.92%

COC(=O)c1ccc[n+](CCCCCCCCCn2c(C(=O)OC)cc3ccccc32)c1 [Compound 190]
IC50 [1]: 50 µM
MIC [5]: 3 µM
inhibition of growth at 100 µM ([6]; concentration screened 100 uM): 97.7%

COC(=O)c1cc2cc(OCc3ccccc3)ccc2n1CCCCCCCOC(=O)c1ccc[n+](C)c1 [Compound 976]
IC50 [1]: 20 µM
inhibition at 100 µM [1]: 71%
MIC [2]: 10 µM

C[N+](C)(C)c1ccc(CC(=O)OCCCCCCn2ccc3cc(OCc4ccccc4)ccc32)cc1 [Compound 747]
IC50 [1]: 70 µM
inhibition at 100 µM [1]: 97.8%
MIC [5]: 10 µM
inhibition of growth at 10 µM ([6]; concentration screened 10 uM): 97.9%

Cc1ccc2[nH]c(CCCCCC[n+]3ccccc3)cc2c1 [Compound 297]
% Inhibition ([1]; compound at 0.1 mM (Table 314)): 50.83%
MIC85 [5]: 30 µM
% Inhibition ([6]; concentration screened 100 uM): 100.00%

COC(=O)c1cc2cc(OCc3ccccc3)ccc2n1CCCCCCCOC(=O)Cc1ccc([N+](C)(C)C)cc1 [Compound 988]
inhibition at 100 µM [1]: 84.3%
MIC [2]: 10 µM
